Data as given in EPA's ToxRefDB 2.

Assays:
[1] = test system: rat; conditions: Subchronic oral toxicity in rodents, fischer, Feed, dose end: 13 week, group: systemic
[2] = test system: rat; conditions: Subchronic oral toxicity in rodents, fischer, Feed, dose end: 13 week, group: systemic; remark: listed apart in the source
[3] = test system: mouse; conditions: Subchronic oral toxicity in rodents, b6c3f1, Feed, dose end: 13 week, group: systemic
[4] = test system: mouse; conditions: Multigenerational reproductive toxicity study, cd1, Oral, Feed, dose end: 1 generation
[5] = test system: rat; conditions: Carcinogenicity, sprague dawley, Oral, Gavage/Intubation, dose end: 105 week, group: systemic
[6] = test system: rabbit; conditions: Subchronic dermal toxicity, new zealand white, Topical, dose end: 13 week, group: systemic, systemic / in life observation / clinical signs / desquamation + systemic / in life observation / clinical signs / erythema + systemic / in …
[7] = test system: rat; conditions: Multigenerational reproductive toxicity study, wistar, Oral, Feed, dose end: 2 generation
[8] = test system: mouse; conditions: Subchronic oral toxicity in rodents, cd1, Feed, dose end: 8 week
[9] = test system: dog; conditions: Subchronic oral toxicity in nonrodent, beagle, Feed, dose end: 6 month, group: cholinesterase, cholinesterase / cholinesterase / cholinesterase / erythrocyte cholinesterase (che) + cholinesterase / cholinesterase / cholinesterase / …
[10] = test system: mouse; conditions: Combined chronic toxicity/carcinogenicity, cd1, Oral, Feed, dose end: 91 week
[11] = test system: rat; conditions: Combined chronic toxicity/carcinogenicity, sprague dawley, Oral, Feed, dose end: 24 month
[12] = test system: dog; conditions: Chronic toxicity, beagle, Oral, Feed, dose end: 52 week
[13] = systemic / pathology microscopic / kidney / cytoplasmic alteration + systemic / pathology microscopic / kidney / dilatation + systemic / …
[14] = systemic / pathology microscopic / kidney / regeneration + systemic / urinalysis / aspartate aminotransferase (ast/sgot) / aspartate …
[15] = systemic / pathology microscopic / kidney / dilatation + systemic / pathology microscopic / kidney / hyaline droplet + systemic / pathology …
[16] = systemic / pathology microscopic / kidney / regeneration + systemic / clinical chemistry / thyroxine (t4) / thyroxine (t4), free + systemic…
[17] = systemic / clinical chemistry / alanine aminotransferase (alt/sgpt) / alanine aminotransferase (alt/sgpt) + systemic / clinical chemistry / …
[18] = systemic / in life observation / body weight / body weight + systemic / organ weight / liver / absolute
[19] = group: offspring, systemic / in life observation / body weight / offspring (pup) weight + systemic / in life observation / body weight / offspring (pup) …
[20] = group: parental, systemic / in life observation / body weight / body weight + systemic / in life observation / mortality / mortality + systemic / in life …
[21] = group: reproductive, reproductive / offspring survival early / birth index / live birth index
[22] = systemic / clinical chemistry / [other] / [other] + systemic / clinical chemistry / thyroxine (t4) / thyroxine (t4), total + systemic / …
[23] = systemic / clinical chemistry / [other] / [other] + systemic / organ weight / liver / relative to body weight + systemic / clinical …
[24] = group: cholinesterase, cholinesterase / cholinesterase / cholinesterase / cholinesterase (che)
[25] = group: cholinesterase, cholinesterase / cholinesterase / cholinesterase / cholinesterase (che) + cholinesterase / cholinesterase / cholinesterase / brain …
[26] = group: offspring, developmental / offspring survival late / lactation index / lactation index + developmental / offspring survival late / [other] / [other] + …
[27] = group: offspring, systemic / in life observation / clinical signs / no milk in stomach
[28] = group: parental, systemic / in life observation / body weight / body weight gain + systemic / in life observation / clinical signs / hyperreflexitivity
[29] = group: reproductive, reproductive / offspring survival early / litter size / litter size
[30] = group: cholinesterase, cholinesterase / cholinesterase / cholinesterase / plasma cholinesterase (che) + cholinesterase / cholinesterase / cholinesterase / …
[31] = group: systemic, systemic / in life observation / body weight / body weight + systemic / in life observation / body weight / body weight gain + systemic / in…
[32] = group: cholinesterase, cholinesterase / cholinesterase / cholinesterase / brain cholinesterase (che) + cholinesterase / cholinesterase / cholinesterase / …
[33] = group: systemic, systemic / pathology microscopic / intestine small / hyperplasia + systemic / in life observation / mortality / mortality + systemic / …
[34] = group: systemic, systemic / pathology microscopic / intestine small / hyperplasia + systemic / pathology microscopic / bone marrow / hyperplasia
[35] = group: cholinesterase, cholinesterase / cholinesterase / cholinesterase / plasma cholinesterase (che)
[36] = group: cholinesterase, cholinesterase / cholinesterase / cholinesterase / plasma cholinesterase (che) + cholinesterase / cholinesterase / cholinesterase / brain …
[37] = group: systemic, systemic / pathology microscopic / pancreas / atrophy
[38] = group: systemic, systemic / pathology microscopic / pancreas / atrophy + systemic / pathology microscopic / pancreas / adenoma + systemic / in life …
[39] = group: cholinesterase, cholinesterase / cholinesterase / cholinesterase / erythrocyte cholinesterase (che) + cholinesterase / cholinesterase / cholinesterase / …
[40] = group: reproductive, reproductive / reproductive performance / estrous cycle / abnormal
[41] = group: systemic, systemic / organ weight / liver / absolute + systemic / organ weight / liver / relative to brain weight
[42] = group: systemic, systemic / organ weight / liver / absolute + systemic / organ weight / liver / relative to brain weight + systemic / clinical chemistry / …

## Clc1cc(Cl)c(Cl)cc1Cl [1,2,4,5-Tetrachlorobenzene]
[1]; [13]
  LOAEL: 7.1 mg/kg/day
  NOAEL: 2.1 mg/kg/day
[1]; [14]
  LEL: 2.1 mg/kg/day
  NEL: < 2.1 mg/kg/day
[2]; [15]
  LOAEL: 7.1 mg/kg/day
  NOAEL: 2.1 mg/kg/day
[2]; [16]
  LEL: 2.1 mg/kg/day
  NEL: < 2.1 mg/kg/day
[3]; [17]
  LOAEL: > 450 mg/kg/day
  NOAEL: ≥ 450 mg/kg/day
[3]; [18]
  LEL: 4 mg/kg/day
  NEL: < 4 mg/kg/day
[4]; [19]
  LEL: 100 mg/kg/day
  LOAEL: > 250 mg/kg/day
  NEL: 40 mg/kg/day
  NOAEL: ≥ 250 mg/kg/day
[4]; group: parental, systemic / in life observation / body weight / body weight + systemic / in life observation / mortality / mortality
  NEL: 40 mg/kg/day
[4]; [20]
  LOAEL: > 250 mg/kg/day
  NOAEL: ≥ 250 mg/kg/day
[4]; group: parental, systemic / in life observation / body weight / body weight + systemic / organ weight / testes / absolute
  LEL: 100 mg/kg/day
[4]; [21]
  LEL: 100 mg/kg/day
  LOAEL: > 250 mg/kg/day
  NEL: 40 mg/kg/day
  NOAEL: ≥ 250 mg/kg/day

## Clc1cc2oc3c(Cl)c(Cl)c(Cl)cc3c2cc1Cl [2,3,4,7,8-Pentachlorodibenzofuran]
[5]; [22]
  LOAEL: > 0.0002 mg/kg/day
  NOAEL: ≥ 0.0002 mg/kg/day
[5]; [23]
  LEL: 6e-06 mg/kg/day
  NEL: < 6e-06 mg/kg/day

## CC(=O)O.CC(=O)O.NC(=NCCCCCCN=C(N)/N=C(\N)Nc1ccc(Cl)cc1)/N=C(\N)Nc1ccc(Cl)cc1 [Chlorhexidine diacetate]
[6]
  LEL: 250 mg/kg/day
  LOAEL: 250 mg/kg/day
  NEL: < 250 mg/kg/day
  NOAEL: < 250 mg/kg/day

## CCNP(=S)(OC)O/C(C)=C/C(=O)OC(C)C (stereo not drawn) [Propetamphos]
[7]; [24]
  LEL: 2.1 mg/kg/day
  LOAEL: 2.1 mg/kg/day
[7]; [25]
  NEL: 0.3 mg/kg/day
  NOAEL: 0.3 mg/kg/day
[7]; [26]
  LOAEL: 8 mg/kg/day
  NOAEL: 3 mg/kg/day
[7]; [27]
  LEL: 0.5 mg/kg/day
  NEL: < 0.5 mg/kg/day
[7]; group: parental, systemic / in life observation / body weight / body weight gain
  LEL: 3.7 mg/kg/day
[7]; [28]
  LOAEL: 7.1 mg/kg/day
  NOAEL: 2.8 mg/kg/day
[7]; group: parental, systemic / in life observation / body weight / body weight gain + systemic / in life observation / clinical signs / hyperreflexitivity + …
  NEL: 0.5 mg/kg/day
[7]; [29]
  LEL: 0.5 mg/kg/day
  NEL: < 0.5 mg/kg/day
[7]; group: reproductive, reproductive / reproductive performance / implantations / implantations + reproductive / reproductive performance / mating / mating
  NOAEL: 3.7 mg/kg/day
[7]; group: reproductive, reproductive / reproductive performance / implantations / implantations + reproductive / reproductive performance / mating / mating + …
  LOAEL: 11.3 mg/kg/day
[8]; [30]
  LEL: 1 mg/kg/day
  LOAEL: 1 mg/kg/day
  NEL: < 1 mg/kg/day
  NOAEL: < 1 mg/kg/day
[8]; group: systemic, systemic / in life observation / body weight / body weight + systemic / in life observation / body weight / body weight gain
  LOAEL: 59 mg/kg/day
[8]; [31]
  LEL: 59 mg/kg/day
  NEL: 28 mg/kg/day
  NOAEL: 28 mg/kg/day
[9]
  LEL: 0.083 mg/kg/day
  LOAEL: 0.165 mg/kg/day
  NEL: < 0.083 mg/kg/day
  NOAEL: 0.083 mg/kg/day
[10]; [32]
  LEL: 1 mg/kg/day
  LOAEL: 1 mg/kg/day
  NEL: 0.05 mg/kg/day
  NOAEL: 0.05 mg/kg/day
[10]; [33]
  NEL: 1 mg/kg/day
  NOAEL: 1 mg/kg/day
[10]; [34]
  LEL: 6 mg/kg/day
  LOAEL: 6 mg/kg/day
[11]; [35]
  LEL: 0.632 mg/kg/day
  LOAEL: 0.632 mg/kg/day
[11]; [36]
  NEL: 0.376 mg/kg/day
  NOAEL: 0.376 mg/kg/day
[11]; [37]
  LEL: 0.689 mg/kg/day
  LOAEL: 0.689 mg/kg/day
[11]; [38]
  NEL: 0.412 mg/kg/day
  NOAEL: 0.412 mg/kg/day
[12]; [39]
  LEL: 0.59 mg/kg/day
  LOAEL: 0.59 mg/kg/day
  NEL: 0.13 mg/kg/day
  NOAEL: 0.13 mg/kg/day
[12]; [40]
  LEL: 3.39 mg/kg/day
  LOAEL: > 3.39 mg/kg/day
  NEL: 0.67 mg/kg/day
  NOAEL: ≥ 3.39 mg/kg/day
[12]; [41]
  LEL: 0.59 mg/kg/day
  LOAEL: 0.59 mg/kg/day
[12]; [42]
  NEL: 0.13 mg/kg/day
  NOAEL: 0.13 mg/kg/day
